According to US20110003694A1, “USE OF SOLUTIONS OF MINT OIL OR OF L-CARVONE FOR THE FUNGICIDAL AND/OR ANTI-GERMINATING TREATMENT OF BULBS AND/OR TUBERS” (Zone Artisanale La Crau Route Nationale 7, priority 2007, published 2011):

System: silver scurf (Helminthosporium solani)
Test: Silver scurf coverage on Roseval potatoes after three months storage
Format: in vivo
Conditions: three months storage at 8° C., thermal fogging
Description: Roseval potatoes were treated by thermal fogging with mint oil at 90 g/tonne, or with 67-72 g/tonne of L-carvone, then three times at 30 g/tonne, or 22.5-24 g/tonne of L-carvone, at 21-day intervals. They were then stored for three months at 8° C. The silver scurf coverage rates were measured on the batches treated with L-carvone and on the controls treated by thermal fogging with CIPC at 200 g/L at a dose of 60 ml/tonne for the first application then at 40 ml/tonne for the subsequent applications.

Row | Structure (SMILES) | Coverage 5-75% (%) Class 4 [%] | Coverage 6-25% (%) Class 2 | Coverage 26-50% (%) Class 3 | Coverage >75% (%) Class 5 [%] | Coverage ≦5% (%) Class 1 [%] | Silver scurf index (0-100) | Undamaged tubers (%) Class 0
1 | C=C(C)C1CC=C(C)C(=O)C1 [L-carvone, 2-methyl-5-(1-methylethenyl)-2-cyclohexen-1-one] | 0.0 | 0.0 b % | 0.0 b % | 0.0 | 28.5 | 0.8 b | 71.5 a %
2 | CC(C)OC(=O)Nc1cccc(Cl)c1 [Thermo reference] | 0.7 | 7.7 a % | 3.9 a % | 1.5 | 26.2 | 5.7 a | 60.2 b %
